In assay [1] the target is T1, human OSCP (Homo sapiens, UniProt P48047).
T1 construct: made in house; host or cells: E. coli
Description: OSCP binding by quenching of intrinsic protein fluorescence. An excerpt: To determine if Bz-423 indeed binds to the OSCP and the affinity of the interaction, human OSCP was overexpressed in E. coli. […] Bz-423 is the only known inhibitor of the ATPase that functions through binding to the OSCP.

Assay [2] deals with Ramos cells. Nature of the assay: early O2− (ROS) response, 1 h. The assay is classed as cell-based, human. To be noted: Homo sapiens, Ramos, 1 h, read-out: ROS EC50 (μM), Ramos cells. On the procedure:
To detect O2^−, cells are incubated with DHE (10 μM) for 30 min at 37° C. and are analyzed by flow cytometry to measure ethidium fluorescence. Flow analysis of mitochondrial transmembrane potential (ψm) is conducted by labeling cells with DiOC6(3) (20 nM) for 15 min at 37 degrees C. A positive control for disruption of ψm is established using carbonyl cyanide m-chlorophenylhydrazone (CCCP, 50 μM). Caspase activation assays are performed with FAM-VAD-fluoromethylketone. Processing of the substrate is evaluated by flow cytometry.
Since an early mitochondrial superoxide (O2^−) mediates apoptosis induced by Bz-423, the O2^− response of cells 1 h following incubation with drug was examined, as well as cell death at 24 h, as previously described (see, e.g., Blatt, N. B., et al., 2002 J Clin Invest 110, 1123-1132; incorporated herein by reference in its entirety).

The subject of assay [3] is neuroblastoma cell line SHEP-1. Nature of the assay: antiproliferation, 72 h, 10% FBS. It is filed as cell-based. To be noted: SH-EP1, SHEP-1, 72 h, read-out: ED50 for antiproliferation. On the procedure:
(§1) Like most 1,4-benzodiazepines, Bz-423 binds strongly to bovine serum albumin (BSA), which reduces the effective concentration of drug free in solution. For example, in tissue culture media containing 10% (v/v) fetal bovine serum (FBS), ca. 99% of the drug is bound to BSA. Therefore, cell culture cytotoxicity assays are conducted in media with 2% FBS to reduce binding to BSA and increase the free [Bz-423]. Under these conditions, the dose response-curve is quite sharp such that there is a limited concentration range at which Bz-423 is only partly effective. Since some benzodiazepines are known to have anti-proliferative properties, the effect of Bz-423 at concentrations <ED50 were carefully analyzed and observed that in addition to inducing apoptosis, Bz-423 prevented cell growth after 3 d in culture. In these low serum conditions, the cytotoxic and anti-proliferative effects overlapped making it difficult to study each effect independently. […] While higher amounts of drug may also block proliferation, it caused apoptosis well before the effects on proliferation could be observed.
(§2) To confirm the decrease in cell number relative to control cells after 3 d of treatment is due to decreased proliferation and not cell death balanced by proliferation, in addition to cell counting, cell divisions were studied. PKH-67 is a fluorescent probe that binds irreversibly to cell membranes and upon cell division is partitioned equally between the daughter cells, making it possible to quantify cell division by flow cytometry. Ramos cells stained with PKH67 and treated with Bz-423 had fewer cell divisions at sub-cytotoxic concentrations which confirmed that the decrease in cell number was due to anti-proliferative affects and not cell death. To determine if Bz-423 induced anti-proliferation was specific to Ramos cells, cell counting and cell cycle experiments were done in other B cell lines and cell lines derived from solid tumors.

Assay [4] concerns Ramos cells. Description: antiproliferation, 72 h, 10% FBS. The assay is classed as cell-based. To be noted: Homo sapiens, read-out: ED50 for antiproliferation. As to the method: as §1, §2
Assay [5] relates to Ramos clones transfected to overexpress Bcl-2. Description: antiproliferation, 72 h, 10% FBS. As to conditions: Homo sapiens, Bcl-2, 72 h, read-out: ED50 for antiproliferation. The assay is classed as cell-based. On the procedure: as §1, §2
Assay [6] relates to Ramos clones transfected to overexpress Bcl-xL. Nature of the assay: antiproliferation, 72 h, 10% FBS. It is filed as cell-based. As to conditions: Homo sapiens, read-out: ED50 for antiproliferation. On the procedure:
as §1, §2

The subject of assay [7] is neuroblastoma cell line Lan-1. Description: antiproliferation, 72 h, 10% FBS. It is filed as cell-based. As to conditions: LAN1, Lan-1, 72 h, read-out: ED50 for antiproliferation. On the procedure: as §1, §2
Assay [8] relates to malignant B cell line Raji. Nature of the assay: antiproliferation, 72 h, 10% FBS. It is filed as cell-based. As to conditions: Homo sapiens, read-out: ED50 for antiproliferation. As to the method: as §1, §2
Assay [9] has as its system neuroblastoma cell line IMR-32. Nature of the assay: antiproliferation, 72 h, 10% FBS. The assay is classed as cell-based. To be noted: Homo sapiens, IMR-32, 72 h, read-out: ED50 for antiproliferation. As to the method:
as §1, §2

For assay [10], the system named is malignant B cell line CA46. Description: antiproliferation, 72 h, 10% FBS. The assay is classed as cell-based. To be noted: Homo sapiens, CA46, 72 h, read-out: ED50 for antiproliferation. As to the method: as §1, §2
The subject of assay [11] is ovarian cells with null p53 (SKOV3). Description: antiproliferation, 72 h, 10% FBS. It is filed as cell-based. To be noted: Homo sapiens, SK-OV-3, SKOV3, 72 h, read-out: ED50 for antiproliferation. On the procedure: as §1, §2
Assay [12] deals with peripheral benzodiazepine receptor (“PBR”) (Homo sapiens, UniProt P30536). Nature of the assay: binding to the peripheral benzodiazepine receptor.
Assay [13] deals with migration inhibitory factor (MIF). Nature of the assay: gene expression profiling of Ramos cells (Affymetrix U133A). The assay is classed as cell-based, human. On the procedure:
In vitro testing with Ramos cells to determine the changes in gene expression (at the level of mRNA) induced by Bz-423 was performed by culturing cells at a density of 500,000 cells per ml. Solvent control (DMSO, final concentration 0.1% V/V]), Bz-423, or Bz-OMe (10 μM) was added to cells. After 4 h, cells were harvested and RNA prepared using Trizol Reagent (#15596-018, Life Technologies, Rockville, Md.) and the RNeasy Maxi Kit (# 75162, Qiagen, Valencia, Calif.) according to manufacturers protocols. Single stranded cDNA was synthesized by reverse transcription using poly (A) RNA present in the starting total RNA sample. Single stranded cDNA was converted into double stranded cDNA and then in vitro transcription carried out in the presence of biotinylated UTP and CTP to produce biotin-labeled cRNA. cRNA was fragmented in the presence of Mg2+, and hybridized to the human genome U133A Genechip array (Affymetrix). Hybridization results were quantified using a GeneArray scanner and analysis carried out according to the instructions provided by Affymetrix. […]
The data were analyzed to detect genes changes Bz treatment according to the criteria that the log-transformed mean signal changed at least four-fold in treated compared to vehicle control samples and that the coefficient of variance for control values (n=4) was less than 10%. […]

Sequence of peripheral benzodiazepine receptor (“PBR”) (P30536 whole entry, species assumed): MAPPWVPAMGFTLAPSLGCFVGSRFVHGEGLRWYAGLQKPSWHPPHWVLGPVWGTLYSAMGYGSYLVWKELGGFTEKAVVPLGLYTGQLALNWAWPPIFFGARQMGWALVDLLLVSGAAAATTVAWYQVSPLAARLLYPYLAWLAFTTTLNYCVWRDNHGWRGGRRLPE
T1 sequence (P48047 24-213): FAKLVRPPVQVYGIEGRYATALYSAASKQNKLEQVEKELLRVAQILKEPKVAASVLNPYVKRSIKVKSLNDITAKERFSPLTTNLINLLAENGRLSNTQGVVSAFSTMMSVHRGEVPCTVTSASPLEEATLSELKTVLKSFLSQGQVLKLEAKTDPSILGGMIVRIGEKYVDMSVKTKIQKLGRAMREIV

`CN1C(=O)C(Cc2ccc3ccccc3c2)N=C(c2ccc(O)cc2)c2cc(Cl)ccc21` (stereo not shown) [Bz-423]: the Kd in assay [1] was 0.2 ± 0.04 µM; in assay [12], around 1 µM. Besides, the EC50 in assay [2] is 7.3 µM; in [3], 15.9 µM; in [4] it was 10.7 µM; in assay [5], 11.9 µM; in [6], 13.7 µM; in assay [7], 13.7 µM. The EC50 in assay [8] came to 12.9 µM; in assay [9], 18 µM; in assay [10], 13.4 µM; in assay [11] it was 18.2 µM. Further, in [13], the “induction of MIF” value was “approximately 10 fold”.

Broadly, the Kd is the constant that tells how readily two partners part at equilibrium. Read a low Kd as higher affinity.

The values are drawn from patent US20090275099A1 (priority 2004, published 2009).
